From patent publication US10047036B2, “Method for the synthesis of hydroxy-triglycerides and uses thereof for the prevention and treatment of diseases” (UNIVERSITAT DE LES ILLES BALEARS, priority 2014, dated 2018)

System: systolic blood pressure
Assay: systolic blood pressure in spontaneously hypertensive rats
Assay type: in vivo
Details: SHR rats; for Δ SP, change in systolic blood pressure: 14 days, 600 mg/kg every 12 hours, basal 216 mmHg; for drops in systolic blood pressure: 14-day treatments with 600 mg/kg
Text: Metabolic and cardiovascular pathologies are closely related. The overfeeding which characterises our society not only gives rise to problems of obesity and excess weight. It is also linked to the appearance of diabetes, dyslipidaemia, hypertension, strokes, arteriosclerosis, ictus, etc. All of these pathologies increase the risk of premature death and can even cause death. In this sense, certain natural oils show a certain efficacy against this type of pathologies, but their power is limited. In contrast, the molecules of the invention have an important effect against the development of this type of pathologies. To be able to study the effects of the compounds of the invention for the prevention and treatment of metabolic and cardiovascular pathologies, hypertensive rats were used (SHR strain, spontaneously hypertensive rats). These rats present obesity, high blood pressure, dyslipidaemia (hypercholesterolemia and hypertriglyceridemia), diabetes, metabolic syndrome and other related health problems. Hypertensive rats of the SHR strain (spontaneously hypertensive rats) with an approximate weight of 300 grams were treated with TGM1 during 9 days (400 mg/kg, every 12 h, p.o.). Systolic pressure was measured before starting the treatment (basal) and 9 days later. In these animals with a metabolic/cardiovascular pathology, this treatment with TGM1 produced drops in blood pressure of approximately 25 mmHg, while the 14-day treatments with 600 mg/kg of TGM1 induced even greater drops in systolic blood pressure of up to 37 mmHg for TGM1 and up to 52 mmHg for TGM6 (FIG. 4 and Table 3). […] [table]

Row | SMILES | Δ SP, change in systolic blood pressure (p.o.) [mmHg] | drops in systolic blood pressure | drops in blood pressure (9 days, 400 mg/kg every 12 h, p.o.)
1 | CCCCCC=CCC=CCC=CCCCC(O)C(=O)OCC(COC(=O)C(O)CCCC=CCC=CCC=CCCCCC)OC(=O)C(O)CCCC=CCC=CCC=CCCCCC (centres unmarked) [TGM3G, 1,2,3-tri(2′-hydroxy-octadec-6′,9′,12′-trienoyl)glycerol] | −21 |  | 
2 | CCCCCC=CCC=CCCCCCCC(O)C(=O)OCC(COC(=O)C(O)CCCCCCC=CCC=CCCCCC)OC(=O)C(O)CCCCCCC=CCC=CCCCCC (centres unmarked) [TGM2, 1,2,3-tri(2′-hydroxy-octadec-9′,12′-dienoyl)glycerol] | −41 |  | 
3 | CCC=CCC=CCC=CCC=CCC=CCC=CCC(O)C(=O)OCC(COC(=O)C(O)CC=CCC=CCC=CCC=CCC=CCC=CCC)OC(=O)C(O)CC=CCC=CCC=CCC=CCC=CCC=CCC (centres unmarked) [TGM6, 1,2,3-tri(2′-hydroxy-docosa-4′,7′,10′,13′,16′,19′-hexanoyl)glycerol] | −52 | up to 52 mmHg | 
4 | CCC=CCC=CCC=CCC=CCC=CCCC(O)C(=O)OCC(COC(=O)C(O)CCC=CCC=CCC=CCC=CCC=CCC)OC(=O)C(O)CCC=CCC=CCC=CCC=CCC=CCC (centres unmarked) [TGM5, 1,2,3-tri(2′-hydroxy-eicosa-5′,8′,11′,14′,17′-pentaenoyl)glycerol] | −40 |  | 
5 | CCCCCC(O)C(=O)OCC(COC(=O)C(O)CCCCC)OC(=O)C(O)CCCCC (centres unmarked) [TGM0, 1,2,3-tri(2′-hydroxyheptanoyl)glycerol] | −8 |  | 
6 | CCCCCCCCC=CCCCCCCC(O)C(=O)OCC(COC(=O)C(O)CCCCCCC=CCCCCCCCC)OC(=O)C(O)CCCCCCC=CCCCCCCCC (centres unmarked) [TGM1, 1,2,3-tri(2′-hydroxy-octadec-9′-enoyl)glycerol] | −37 | up to 37 mmHg | approximately 25 mmHg
7 | CCCCCC=CCC=CCC=CCC=CCCC(O)C(=O)OCC(COC(=O)C(O)CCC=CCC=CCC=CCC=CCCCCC)OC(=O)C(O)CCC=CCC=CCC=CCC=CCCCCC (centres unmarked) [TGM4, 1,2,3-tri(2′-hydroxy-eicosa-5′,8′,11′,14′-tetraenoyl)glycerol] | −43 |  | 
8 | CCC=CCC=CCC=CCCCCCCC(O)C(=O)OCC(COC(=O)C(O)CCCCCCC=CCC=CCC=CCC)OC(=O)C(O)CCCCCCC=CCC=CCC=CCC (centres unmarked) [TGM3A, 1,2,3-tri(2′-hydroxy-octadec-9′,12′,15′-trienoyl)glycerol] | −28 |  | 
